{"source": "paper PMC10604213", "about": "“Purification and Characterization of Polyphenol Oxidase in the Fruits of Opuntia ficus-indica” (Biology, 2023)", "key": {"[1]": {"test_system": "T1, polyphenol oxidase (PPO) from the fruits of Opuntia ficus-indica", "T1 construct": "native, from fruit flesh; few SDS-PAGE bands, two prominent: slightly below 35 kDa and slightly above 45 kDa", "assay": "absorbance at […] nm, Lineweaver-Burk", "type": "biochemical", "details": "0.1 M phosphate buffer"}, "[2]": {"test_system": "T1, polyphenol oxidase (PPO) from the fruits of Opuntia ficus-indica", "assay": "absorbance at […] nm, Lineweaver-Burk", "type": "biochemical", "details": "pH 9.0, 20 °C, 0.1 M Tris-base buffer"}}, "data": [{"smiles": "Cc1ccc(O)c(O)c1", "note": "[4-methyl catechol]", "values": [{"measurement": "Km", "setting": "[1]; pH 7.5, 30 °C", "result": 5.38, "unit": "mM"}]}, {"smiles": "Oc1ccccc1O", "note": "[catechol]", "values": [{"measurement": "Km", "setting": "[1]; pH 7.5, 20 °C", "result": 6.33, "unit": "mM"}]}, {"smiles": "Oc1cccc(O)c1O", "note": "[pyrogallol]", "values": [{"measurement": "Km", "setting": "[2]", "result": 16.7, "unit": "mM"}]}]}
